In US20120309676A1, “Lantibiotic Salts” (priority 2010, published 2012):
Structures can show the parent of a compound that is named as a salt. Where two headings read alike, the source gives them in different places.

Legend:
[1] = tested on: Vancomycin resistant enterococci, E. faecium; assay: MIC susceptibility testing, vancomycin resistant enterococci (E. faecium); type: cell-based
Procedure: (§1) Susceptibility testing with the exception of Streptococcus pneumoniae was performed by two-fold serial dilutions in Mueller Hinton Broth supplemented with 50 μg/mL Ca^2+. Susceptibility testing of S. pneumoniae was performed by two-fold serial dilutions in Brain-Heart-Infusion Broth supplemented with 50 μg/mL Ca^2+.
(§2) Modal values from up to 6 determinations

[2] = tested on: Staphylococcus aureus methicillin resistant ATCC 33591; assay: Mouse bacteraemia model, second experiment, IV dosing; type: in vivo; settings: for number of deaths: after 7 days, groups of 6 mice
Procedure: In a second experiment Groups of 6 male CD-1 (Crl.) derived mice weighing 24±2 g were used. Mice were inoculated intraperitoneally (IP) with an LD90-100 of Staphylococcus aureus methicillin resistant ATCC 33591 (1.35×10^8 CFU/mouse) in 0.5 mL of BHI broth containing 5% mucin. Example 1 was dissolved in 5% dextrose/1.5 mM potassium phosphate, pH 5.0 and doses of 1, 3, 5 and 10 mg/Kg were administered intravenously (IV) to test animals at 1 and 13 hour(s) after bacteria challenge. The dosing volume was 5 mL/Kg. Mortality was recorded once daily for 7 days.

Streptococcus pneumoniae = assay: MIC susceptibility testing, S. pneumoniae (Brain-Heart-Infusion Broth); type: cell-based; settings: S. pneumoniae R33
Procedure: as §1, §2

[3] = tested on: Methicillin-resistant Staph. epidermidis; assay: MIC susceptibility testing, methicillin-resistant Staph. epidermidis; type: cell-based, S. epidermidis
Procedure: as §1, §2

[4] = tested on: Vancomycin resistant enterococci, E. faecalis; assay: MIC susceptibility testing, vancomycin resistant enterococci (E. faecalis); type: cell-based
Procedure: as §1, §2

S. pyogenes = assay: MIC susceptibility testing, S. pyogenes; type: cell-based
Procedure: as §1, §2

Aqueous solubility = type: physicochemical
Description: Solubility as employed herein is used generically to refer to a distribution of a compound of formula (I) in a solvent (for example water, saline or an aqueous isotonic solution such as glucose) such that the formulation/composition resulting therefrom is substantially free of visible aggregates and for example is substantially transparent when viewed by the naked eye. Such a formulation would therefore include a whole range of formats which are suitable for infusion and/or injection such as solutions, suspensions, colloids and the like. […]

MSSA = assay: MIC susceptibility testing, MSSA; type: cell-based, Staphylococcus aureus
Procedure: as §1, §2

CC[C@H](C)[C@@H]1NC(=O)[C@@H]2NC(=O)[C@H](CC(C)C)NC(=O)[C@H](NC(=O)[C@@H]3CSC[C@@H](N)C(=O)N[C@@H](CO)C(=O)NCC(=O)N[C@@H](Cc4c[nH]c5ccccc45)C(=O)N[C@@H](C(C)C)C(=O)N3)[C@H](C)SC[C@H](NC(=O)[C@H](CCC(=O)O)NC1=O)C(=O)NCC(=O)N[C@H]1C(=O)N[C@@H](CC(C)C)C(=O)N[C@@H](C(C)C)C(=O)N[C@@H](CS[C@H]2C)C(=O)N[C@@H](C)C(=O)N[C@H](C(=O)NCc2cc(Cl)cc(Cl)c2)CS[C@H]1C [Example 1, Deoxyactagardine B (3,5-dichlorobenzylamine) monocarboxamide N-methyl glucamine salt]
MIC ([1]; E. faecium 7634337): 16 µg/mL | MIC ([1]; E. faecium 7662769): <16 µg/mL | MIC ([1]; E. faecium 7860190): 4 to 8 µg/mL | MIC ([1]; E. faecium 7865532): 16 µg/mL | MIC ([1]; E. faecium 9704998): 8 µg/mL | MIC ([1]; E. faecium 9709024): <16 µg/mL | MIC ([1]; E. faecium 9710577): 16 µg/mL | number of deaths ([2]; 1 mg/kg IV at 1 and 13 h after challenge): 5 | number of deaths ([2]; 3 mg/kg IV at 1 and 13 h after challenge): 4 | number of deaths ([2]; 5 mg/kg IV at 1 and 13 h after challenge): 1 | number of deaths ([2]; 10 mg/kg IV at 1 and 13 h after challenge): 1 | survival of mice after 7 days ([2]; 1, 3, 5 and 10 mg/kg): dose-dependent incease in survival | MIC (Streptococcus pneumoniae): <16 µg/mL | MIC ([3]; S. epidermidis 7753921): 8 to 16 µg/mL | MIC ([3]; S. epidermidis 7755298): 8 µg/mL | MIC ([3]; S. epidermidis 7765349): 4 µg/mL | MIC ([3]; S. epidermidis 7864847): <16 µg/mL | MIC ([3]; S. epidermidis 7865688): 16 µg/mL | MIC ([3]; S. epidermidis GRL05011): 16 µg/mL | MIC ([3]; S. epidermidis GRL05012): 8 µg/mL | MIC ([3]; S. epidermidis GRL05013): 8 to 16 µg/mL | MIC ([3]; S. epidermidis GRL05014): 8 to 16 µg/mL | MIC ([3]; S. epidermidis GRL05015): 8 to 16 µg/mL | MIC ([3]; S. epidermidis GRL05016): 4 to 8 µg/mL | MIC ([3]; S. epidermidis GRL05017): 16 µg/mL | MIC ([3]; S. epidermidis GRL05019): 16 µg/mL | MIC ([3]; S. epidermidis GRL05020): 4 µg/mL | MIC ([4]; E. faecalis 9758512): 8 µg/mL | MIC ([4]; E. faecalis GRL05031): 2 to 4 µg/mL | MIC ([4]; E. faecalis GRL05032): 8 µg/mL | MIC ([4]; E. faecalis GRL05033): 8 µg/mL | MIC ([4]; E. faecalis GRL05034): 4 µg/mL | MIC ([4]; E. faecalis GRL05035): 8 µg/mL | MIC (S. pyogenes; S. pyogenes 7713283): 0.06 µg/mL | MIC (S. pyogenes; S. pyogenes 7755255): <2 µg/mL | MIC (S. pyogenes; S. pyogenes 7755441): 0.06 µg/mL | MIC (S. pyogenes; S. pyogenes 7755584): 0.06 to 0.125 µg/mL | MIC (S. pyogenes; S. pyogenes 7757080): <1 µg/mL | MIC (S. pyogenes; S. pyogenes 7865253): 0.06 µg/mL | MIC (S. pyogenes; S. pyogenes 7865289): 0.06 µg/mL | MIC (S. pyogenes; S. pyogenes 7865844): 8 µg/mL | MIC (S. pyogenes; S. pyogenes GRL05041): <1 µg/mL | MIC (S. pyogenes; S. pyogenes GRL05042): 0.06 µg/mL | MIC (S. pyogenes; S. pyogenes GRL05043): <8 µg/mL | MIC (S. pyogenes; S. pyogenes GRL05045): <4 µg/mL | MIC (S. pyogenes; S. pyogenes GRL05046): 0.06 µg/mL | pH of saturated solution (Aqueous solubility; aqueous saturated solution, listed as N-methyl-D-glucamine salt): 8.43 | Solubility (Aqueous solubility; aqueous, * = calculations made from two determinations, listed as N-methyl-D-glucamine salt): 6.87* mg/mL | Solubility (Aqueous solubility; water, salts of compound 1, read-out: solubility): > 10000 µg/mL | MIC (MSSA; S. aureus 8325-4): 4 µg/mL | MIC (MSSA; S. aureus G12): 4 µg/mL | MIC (MSSA; S. aureus G15): 4 µg/mL | MIC (MSSA; S. aureus G20): 4 µg/mL | MIC (MSSA; S. aureus G22): 4 µg/mL | MIC (MSSA; S. aureus G23): 4 µg/mL | MIC (MSSA; S. aureus G26): 4 µg/mL | MIC (MSSA; S. aureus G28): 4 µg/mL | MIC (MSSA; S. aureus G29): 4 µg/mL | MIC (MSSA; S. aureus G30): 4 µg/mL | MIC (MSSA; S. aureus G31): 4 µg/mL | MIC (MSSA; S. aureus G32): 4 µg/mL | MIC (MSSA; S. aureus G33): 4 µg/mL | MIC (MSSA; S. aureus G35): 4 µg/mL | MIC (MSSA; S. aureus SH1000): 4 to 8 µg/mL
